Measurements reported in patent US4540513A, “Decapeptide having gonadotropin releasing activity” (Kanegafuchi Kagaku Kogyo Kabushiki Kaisha, priority 1984, dated 1985).
Where a SMILES comes first, the peptide text is derived from it. [ ]: non-standard residue; d: D form. pGlu = O=C1CC[C@@H](C(=O)O)N1

Test system: rat prehypophysis (anterior pituitary) cells
Test: Gonadotropin (LH and FSH) releasing activity, monolayer culture of rat prehypophysis cells, radioimmunoassay of the supernatant
Assay type: cell-based
Protocol: The synthetic or natural decapeptides prepared in Example 1 was dissolved in 1N acetic acid so that the concentration was 1 μg/ml.
A series of half dilutions from 10.24 ng/ml to 10 pg/ml was prepared from the above solution.
Each sample solution in the series was dried in a rotary evaporator by evaporating 1N acetic acid.
The releasing activity was measured by monolayer culture method using rat prehypohysis cells. After rat prehypophysis cells were disperesed with tripsin and Viokase, the dispersed cells were washed well with a culture medium [Dulbecco's modified Eagle's medium (DMEM) containing 100 unit/ml gentamicin, 2.5 μ/ml fungizone, 5% horse serum, 5% human serum, and 2.5% fetal bovine serum]. The cells were inoculated at a density of 5×10^4 cells in each well of a plastic culture tray having 96 wells and precultured for 4 days.
Samples to be tested for gonadotropin releasing activity were added to the fifth-day culture and the culture was further incubated for 24 hours at 37° C. in the presence of 5% CO2.
On the fifth day of the culture the above dried peptide sampls were dissolved in 0.5 ml of the Dulbecco's modified Eagle's medium (DMEM), 0.2 ml of aligot was aded to each well, and the cells were cultured in the well for additional 24 hours.
After the culture, the supernatent of the culture was withdrawn and assayed for LH and FSH with the radio imunoassay kit provided by NIH.

[1] = 24 hours incubation, LH and FSH by radioimmunoassay

`NC(=O)CNC(=O)[C@@H]1CCCN1C(=O)[C@H](Cc1ccc(O)cc1)NC(=O)[C@H](Cc1c[nH]c2ccccc12)NC(=O)CNC(=O)[C@H](Cc1c[nH]cn1)NC(=O)[C@H](CO)NC(=O)[C@H](Cc1c[nH]c2ccccc12)NC(=O)[C@H](Cc1c[nH]cn1)NC(=O)[C@@H]1CCC(=O)N1` [decapeptide of the present invention, pGlu-His-Trp-Ser-His-Gly-Trp-Tyr-Pro-Gly-NH2] ([pGlu]HWSHGWYPG-NH2) was tested, and the lowest detectable amount [1] was 160 pg/mL, the “specific activity at the half maximum dose” value [1] was 3.1 ng/mL and the “LH and FSH releasing activity, specific activity relative to conventional LH-RH” value (% of the conventional LH-RH in specific activity) was 30%. For the same compound, the “gonadotropin-releasing potency relative to mammalian LHRH” value (bioassay with rat anterior pituitary cells, % of that of mammalian LHRH) was “about 32%”, the “gonadotropin-releasing potency relative to chicken LHRH” value (bioassay with rat anterior pituitary cells, times more potent than chicken LHRH) was 8 times and the “LH releasing activity at the maximum dose relative to control” value (maximum dose, bigger than that of the control) was “about 3.5 times”. For the same compound, the “LH releasing activity at the maximum dose” value (maximum dose, control 200 ng/ml LH) was 3200 ng/ml LH and the “activity of the purified relative to the starting material” value (purified from chicken hypothalamus extract, times more than the starting material) was “about 15×10^8 times”.
